The results in this text go back to patent US4110327A, “2,3 Diketo-piperazinocarbonylamino alkanoic acids and derivatives” (Toyama Chemical Co., Ltd., priority 1974, dated 1978).

What all share (assay type): cell-based
Experiment [1] deals with Proteus vulgaris 3027. In words: MIC against standard strain, plate method. As to conditions: Proteus vulgaris 3027, standard strain; unit assumed. The protocol:
(§1) The minimum inhibitory concentrations (MIC) was determined by the plate method disclosed in "Chemotherapy" (Japan), Vol. 16, (1968), pages 98 - 99. The culture medium used was a Heart infusion agar (pH 7.4). The number of the cells per plate used in the inoculum as 10^4 (10^6 cells/ml).

For experiment [2], the system named is Escherichia coli NIHJ. In words: MIC against standard strain, plate method. As to conditions: unit assumed. The protocol:
as §1

For experiment [3], the system named is Klebsiella pneumoniae. The experiment can be described thus: MIC against standard strain, plate method. As to conditions: unit assumed. The method, then:
as §1

The subject of experiment [4] is Pseudomonas aeruginosa I.F.O. In words: MIC against standard strain, plate method. As to conditions: unit assumed. The protocol:
as §1

Experiment [5] deals with Staphylococcus aureus 209p. In words: MIC against standard strain, plate method. As to conditions: unit assumed. The method, then: as §1
Experiment [6] deals with Pseudomonas aeruginosa. In words: MIC against clinical isolates. As to conditions: unit assumed.
Experiment [7] deals with Staphylococcus aureus. The experiment can be described thus: MIC against clinical isolates. As to conditions: unit assumed.
Experiment [8] deals with Escherichia coli. In words: MIC against clinical isolates. As to conditions: unit assumed.
Experiment [9] deals with Klebsiella pneumoniae. In words: MIC against clinical isolates. As to conditions: unit assumed.

In brackets after ≈: the same amount, converted by molar mass. A value given as a limit tells only on which side of the number the result lay.

In the case of `C/C=C/CN1CCN(C(=O)N[C@@H](C(=O)N[C@@H]2C(=O)N3[C@@H]2SC(C)(C)[C@@H]3C(=O)O)c2ccccc2)CC1=O` [compound 28], the MIC in experiment [1] was 3.13 µg/mL (≈ 5.91 µM); in experiment [2], less than 1.57 µg/mL; in [3], 25 µg/mL (≈ 47.2 µM); in [4], 25 µg/mL (≈ 47.2 µM); in [5], less than 1.57 µg/mL.

Turning to `O=C(Cc1cccs1)N[C@@H]1C(=O)N2C(C(=O)[O-])=C(C[n+]3ccccc3)CS[C@H]12` [Cephalorizine, reference compound], the minimum inhibitory concentration (MIC) in experiment [6] (clinical isolate GN 82), in [6] (clinical isolate GN 163), in experiment [6] (clinical isolate GN 221), in [6] (clinical isolate GN 244), in experiment [6] (clinical isolate GN 376) and in experiment [6] (clinical isolate GN 383) was more than 200 µg/mL each time. The MIC in [6] (clinical isolate GN 1035), in experiment [6] (clinical isolate GN 1091), in experiment [6] (clinical isolate GN 2565), in experiment [6] (clinical isolate GN 2987), in experiment [6] (clinical isolate S-1) and in experiment [6] (clinical isolate S-2) was more than 200 µg/mL throughout. Also, the MIC in experiment [6] (clinical isolate S-3) is more than 200 µg/mL; in [6] (clinical isolate S-4), more than 200 µg/mL; in experiment [7] (clinical isolate F-1) it was less than 0.4 µg/mL; in experiment [7] (clinical isolate F-2) it was less than 0.4 µg/mL; in [7] (clinical isolate F-3) it was less than 0.4 µg/mL; in [7] (clinical isolate F-4) it was less than 0.4 µg/mL. Further, the MIC in experiment [7] (clinical isolate F-5) is 0.78 µg/mL (≈ 1.88 µM); in experiment [7] (clinical isolate MS 8588), less than 0.4 µg/mL; in experiment [7] (clinical isolate MS 8596), less than 0.4 µg/mL; in experiment [7] (clinical isolate MS 8619), less than 0.4 µg/mL; in experiment [7] (clinical isolate MS 8684) it was less than 0.4 µg/mL; in [7] (clinical isolate MS 8713), less than 0.4 µg/mL. Also, the MIC in experiment [8] (clinical isolate GN 3435) came out at 3.13 µg/mL (≈ 7.53 µM); in experiment [8] (clinical isolate GN 3452) it was 3.13 µg/mL (≈ 7.53 µM); in experiment [8] (clinical isolate GN 3465) it was 50 µg/mL (≈ 120 µM); in experiment [8] (clinical isolate GN 3481), 3.13 µg/mL (≈ 7.53 µM); in experiment [8] (clinical isolate GN 3611), 100 µg/mL (≈ 241 µM); in experiment [8] (clinical isolate K-1), 3.13 µg/mL (≈ 7.53 µM). The MIC came out at 3.13 µg/mL (≈ 7.53 µM) in experiment [8] (clinical isolate K-2); 200 µg/mL (≈ 481 µM) in experiment [8] (clinical isolate K-3); 6.25 µg/mL (≈ 15 µM) in experiment [8] (clinical isolate K-4); 3.13 µg/mL (≈ 7.53 µM) in experiment [9] (clinical isolate GN 917); 12.5 µg/mL (≈ 30.1 µM) in experiment [9] (clinical isolate GN 4081); 12.5 µg/mL (≈ 30.1 µM) in [9] (clinical isolate GN 4117).

For the compound `CN1CCN(C(=O)N[C@@H](C(=O)N[C@@H]2C(=O)N3[C@@H]2SC(C)(C)[C@@H]3C(=O)O)c2ccccc2)CC1=O` [compound 17], the MIC is 6.25 µg/mL (≈ 12.8 µM) in [1]; less than 1.57 µg/mL in [2]; 50 µg/mL (≈ 102 µM) in experiment [3]; 12.5 µg/mL (≈ 25.5 µM) in experiment [4]; less than 1.57 µg/mL in [5].

Consider `CCCCCC(=O)N1CCN(C(=O)N[C@@H](C(=O)N[C@@H]2C(=O)N3[C@@H]2SC(C)(C)[C@@H]3C(=O)O)c2ccccc2)C(=O)C1` [compound 6], for which the MIC came out at 6.25 µg/mL (≈ 10.9 µM) in [1]; 3.13 µg/mL (≈ 5.46 µM) in [2]; 6.25 µg/mL (≈ 10.9 µM) in [3]; 50 µg/mL (≈ 87.2 µM) in experiment [4]; 3.13 µg/mL (≈ 5.46 µM) in experiment [5].

As to `CC(=O)N1CCN(C(=O)N[C@@H](C(=O)N[C@@H]2C(=O)N3[C@@H]2SC(C)(C)[C@@H]3C(=O)O)c2ccccc2)C(=O)C1C` (some centres unmarked) [compound 4], the minimal inhibitory concentration (MIC) is 3.13 µg/mL (≈ 5.89 µM) in experiment [1]; less than 1.57 µg/mL in [2]; 12.5 µg/mL (≈ 23.5 µM) in experiment [3]; 25 µg/mL (≈ 47 µM) in [4]; less than 1.57 µg/mL in experiment [5].

Regarding `CCCCCCCCCCCCN1CCN(C(=O)N[C@@H](C(=O)N[C@@H]2C(=O)N3[C@@H]2SC(C)(C)[C@@H]3C(=O)O)c2ccccc2)CC1=O` [compound 31], the MIC is less than 1.57 µg/mL in [1]; less than 1.57 µg/mL in experiment [2]; 6.25 µg/mL (≈ 9.71 µM) in experiment [3]; 12.5 µg/mL (≈ 19.4 µM) in experiment [4]; less than 1.57 µg/mL in [5].

With `CC1(C)S[C@@H]2[C@H](NC(=O)[C@H](NC(=O)N3CCN(CCCl)C(=O)C3=O)c3ccccc3)C(=O)N2[C@H]1C(=O)O` [compound 44], the MIC in experiment [1] was less than 1.57 µg/mL; in experiment [2], less than 1.57 µg/mL; in [3], less than 1.57 µg/mL; in experiment [4], 6.25 µg/mL (≈ 11.3 µM); in experiment [5] it was less than 1.57 µg/mL.

With `CN1CCN(C(=O)NC(C(=O)NC2C(=O)N3C2SC(C)(C)C3C(=O)O)C2=CCC=CC2)C(=O)C1=O` (centres unmarked) [compound 57], the minimum inhibitory concentration (MIC) in experiment [1] is 3.13 µg/mL (≈ 6.19 µM); in [2], less than 0.79 µg/mL; in experiment [3], 12.5 µg/mL (≈ 24.7 µM); in experiment [4] it was 12.5 µg/mL (≈ 24.7 µM); in [5] it was less than 0.79 µg/mL.

Consider `CC1(C)S[C@@H]2[C@H](NC(=O)[C@H](NC(=O)N3CCN(C(=O)C(Cl)Cl)CC3=O)c3ccccc3)C(=O)N2[C@H]1C(=O)O` [compound 2], for which the MIC in [1] was 6.25 µg/mL (≈ 10.7 µM); in experiment [2], less than 1.57 µg/mL; in experiment [3], 12.5 µg/mL (≈ 21.3 µM); in [4] it was 50 µg/mL (≈ 85.3 µM); in experiment [5], less than 1.57 µg/mL.

On to `O=C(Cc1cccs1)N[C@@H]1C(=O)N2C(C(=O)[O-])=C(C[n+]3ccccc3)CS[C@H]12` [Cephaloridine, reference compound], for which the minimal inhibitory concentration (MIC) is more than 3.13 µg/mL in experiment [2], 200 µg/mL (≈ 481 µM) in experiment [3], 200 µg/mL (≈ 481 µM) in [4] and less than 1.57 µg/mL in experiment [5].

`CC1(C)S[C@@H]2[C@H](NC(=O)[C@H](NC(=O)N3CCN(C(=O)c4ccc(Cl)cc4)CC3=O)c3ccccc3)C(=O)N2[C@H]1C(=O)O` [compound 8]: the MIC was less than 1.57 µg/mL in experiment [2], 6.25 µg/mL (≈ 10.2 µM) in [3] and less than 1.57 µg/mL in [5].

By MIC is commonly meant the lowest concentration found to suppress growth. Lower therefore signals inhibition by little substance.
